Experimental data: article PMC11489250, “Optimized methods for measuring competitive binding of chemical substances to thyroid hormone distributor proteins transthyretin and thyroxine binding globulin” (Archives of Toxicology, 2024)
Like-named read-outs stand apart in the source and are kept apart here. Values belong to the molecule of their own block, whether it stands above or below them.

Assays:
[1] = biological target: T1, Human TTR (Homo sapiens, UniProt P02766); conditions: FITC-T4 110 nM, human TTR 30 nM, 4 °C, 2 h; ref Hamers et al. [2020]; read-out: TTR literature Ki; cited from earlier work
T1 construct: Transthyretin (prealbumin, TTR) >95% from human plasma; purchased Sigma Aldrich (Zwijndrecht, The Netherlands); host or cells: human plasma

[2] = biological target: T2, thyroxine-binding globulin (TBG) (Homo sapiens, UniProt P05543); assay: Competitive TBG-binding assay with FITC-T4 (fluorescence polarization readout); conditions: for inhibition of the FITC-T4 binding to TBG (in words) / Ki / IC50 / IC20: RT
T2 construct: purchased Bio-rad Laboratories, Inc. (Veenendaal, The Netherlands)
T2 sequence (P05543 21-415): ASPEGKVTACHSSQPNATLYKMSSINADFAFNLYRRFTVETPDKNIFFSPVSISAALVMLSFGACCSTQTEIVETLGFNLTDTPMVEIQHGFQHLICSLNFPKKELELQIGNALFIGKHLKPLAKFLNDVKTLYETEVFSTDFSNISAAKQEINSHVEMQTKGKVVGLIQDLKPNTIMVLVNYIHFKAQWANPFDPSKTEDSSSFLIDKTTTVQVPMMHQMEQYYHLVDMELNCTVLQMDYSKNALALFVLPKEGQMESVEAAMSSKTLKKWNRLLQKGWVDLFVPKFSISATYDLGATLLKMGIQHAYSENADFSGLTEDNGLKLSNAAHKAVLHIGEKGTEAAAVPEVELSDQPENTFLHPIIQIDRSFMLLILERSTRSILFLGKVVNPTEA
Protocol: Prepared plates were first shaken for 5 min and then incubated for 15 min at room temperature before being analysed by the microplate reader at FP mode (CLARIOstar Plus, BMG LABTECH).
Accordingly, dilution series of all compounds were prepared in DMSO. First, 24 µL Tris–HCl buffer was pipetted to the wells, followed by 1 µL of the compound stock solution. […] Solvent (DMSO) concentrations in all conditions were 1%. The plates were shaken for 5 min on a plate shaker, followed by an incubation for 15 min at room temperature.
The adjusted polarization was set to a reference value of 35 mP. The adjustment gain values ranged from 1900 to 2200. The plate layout of TBG-binding assay is provided in Supplementary Information file (Section 4).
For the competitive TBG-binding experiments, concentration–response curves were fitted:2 r=rmin+rmax-rmin/1+IC50/X^HillSlope with rmin and rmax being the minimum and maximum anisotropy values, respectively. X is the concentration of added competitor. Equations that were used for the calculation of the ICX and Ki values in the TTR-binding assays (Supplementary Information, Section 3) were also used to determine the ICX and Ki values in TBG-binding assays without any changes, respectively. The single Kd, IC20, IC50 and Ki were determined based on replicates (n) in each experiment, and then the average and confidence intervals were determined based on the Kd, IC20, IC50 and Ki values from sperate experiments (N).
Alternatively, another approach to determine ICX, Kd and Ki values based on a theoretical model of ligand–protein binding biochemistry was taken as described in detail in the Supplementary Information file (Section 5). For this approach, R was used to fit the model to the data. The results obtained from the two approaches were compared in Section 3.4.
S5.2 Ki and IC50 estimation

[3] = biological target: T1, Human TTR; assay: Optimized competitive TTR-binding assay with FITC-T4 (fluorescence intensity readout); conditions: for T4EQ concentration (TTR binding): T4EQi = highest human blood concentration x T4-REPi; for Contribution to T4EQ concentration (TTR binding): mixture of highest human blood concentrations of five model compounds; for IC20: read-out: TTR IC20
Protocol: All TTR-binding experiments were performed in black 96-well polystyrene nonbinding plates. Experimental wells and background wells were prepared in triplicate per plate. […] Fluorescence intensity (FI) was measured at λex = 485 ± 20 nm and λem = 528 ± 20 nm (CLARIOstar Plus microplate reader, BMG LABTECH).
To test the effect of the change in temperature and incubation time, a saturation experiment (N = 3, n = 3) was performed in Tris–HCl buffer (0.1 M Tris (Thermo Scientific, Rockford, USA), 0.1 M NaCl (Merck KGaA, Darmstadt, Germany), 1 mM EDTA (VWR International, B.V. Amsterdam, The Netherlands); pH 8.0). […] Two 96-well plates were prepared at the same time. After shaking for 5 min on a plate shaker, one prepared plate was incubated on ice (at 4 °C) and another plate was incubated at room temperature (22 °C). For both plates the fluorescence was measured at different time points: 5 min, 15 min, 60 min and 120 min.
First, 48 µL Tris–HCl buffer (pH 8.0) was pipetted to the wells, followed by 2 µL of the compound (in DMSO). […] Final solvent (DMSO) concentrations in all conditions amounted to 1%. All plates were shaken for 5 min on a plate shaker, followed by an incubation for 15 min at room temperature. The standard operation procedure (SOP) is provided in Supplementary Information file (Section 3).
Calculations of the ICX, Kd and Ki values of TTR-binding assays are described in the Supplementary Information file (Section 3).
3.7.5 The competitive TTR binding screening assay
3.7.8 Processing data to determine IC50 and calculate Ki value

[4] = biological target: TBG; parameters: method as in Ren et al. [2016]; conditions: ref Ren et al. [2016], cited from earlier work
[5] = biological target: TTR; parameters: method as in Ren et al. [2016]; conditions: ref Ren et al. [2016]; read-out: TTR literature Ki; cited from earlier work
[6] = tested on: TBG; conditions: highest tested concentration 100 µM with 100 nM TBG and 50 nM FITC-T4; ref Ren et al. [2020]; cited from earlier work
[7] = tested on: TTR; conditions: ref Ren et al. [2020]; cited from earlier work
[8] = biological target: Recombinant TTR; parameters: method as in Marchesini et al. [2006]; conditions: T4 100 nM, recombinant TTR 18.2 nM, 25 °C, 10 min, ref Marchesini et al. [2006], cited from earlier work
[9] = biological target: TBG; parameters: method as in Qi et al. [2011]; conditions: ref Qi et al. [2011]; read-out: TBG literature Ki; cited from earlier work
[10] = biological target: T2, thyroxine-binding globulin (TBG); assay: Competitive TBG-binding assay with FITC-T4 (fluorescence polarization readout); conditions: 37 °C, 15 min, preliminary temperature experiment (N = 2)
[11] = tested on: TBG; parameters: method as in Marchesini et al. [2008]; conditions: T4-coated chips and TBG; ref Marchesini et al. [2008]; read-out: TBG IC50 (SPR biosensor); cited from earlier work
[12] = biological target: TBG; parameters: method as in Cao et al. [2010]; conditions: ref Cao et al. [2010]; read-out: TBG literature Ki; cited from earlier work
[13] = biological target: TBG; parameters: method as in Ren and Guo [2012]; conditions: ref Ren and Guo [2012]; read-out: TBG literature Ki; cited from earlier work
[14] = TTR IC50, 110 nM FITC-T4, 30 nM TTR, RT, 15 min, average [95% CI]
[15] = TTR IC50 [95% CI], 55 nM FITC-T4, 30 nM TTR, RT (5 min)
[16] = TTR IC50 [95% CI], 55 nM FITC-T4, 30 nM TTR, RT (15 min)
[17] = TTR IC50 [95% CI], 55 nM FITC-T4, 30 nM TTR, RT (60 min)
[18] = TTR IC50 [95% CI], 55 nM FITC-T4, 30 nM TTR, RT (120 min)
[19] = TTR IC50 [95% CI], 55 nM FITC-T4, 30 nM TTR, on ice (120 min)
[20] = TTR Ki [95% CI], 55 nM FITC-T4, 30 nM TTR, RT (5 min)
[21] = TTR Ki [95% CI], 55 nM FITC-T4, 30 nM TTR, RT (15 min)
[22] = TTR Ki [95% CI], 55 nM FITC-T4, 30 nM TTR, RT (60 min)
[23] = TTR Ki [95% CI], 55 nM FITC-T4, 30 nM TTR, on ice (120 min)
[24] = TTR Ki, 110 nM FITC-T4, 30 nM TTR, RT, 15 min, derived from IC20, average [95% CI]
[25] = 5 nM FITC-T4, 10 nM TBG, 15 min, derived from IC20, descriptive model (Graphpad), average [95% CI], read-out: TBG Ki
[26] = 5 nM FITC-T4, 10 nM TBG, 15 min, descriptive model (Graphpad), average [95% CI]
[27] = 5 nM FITC-T4, 10 nM TBG, 15 min, descriptive model (Graphpad), average [95% CI], read-out: TBG IC20
[28] = 5 nM FITC-T4, 10 nM TBG, theoretical model in R, average [95% CI], read-out: TBG IC20, theoretical model
[29] = 5 nM FITC-T4, 10 nM TBG, theoretical model in R, average [95% CI], read-out: TBG Ki values, theoretical model
[30] = 110 nM FITC-T4, 30 nM TTR, RT, 15 min, average [95% CI]

SMILES: O=S(=O)(O)C(F)(F)C(F)(F)C(F)(F)C(F)(F)C(F)(F)C(F)(F)C(F)(F)C(F)(F)F [PFOS, Perfluorooctanesulfonic acid]
Ki [1]: 160 nM
inhibition of the FITC-T4 binding to TBG (in words) ([2]; 5 nM FITC-T4, 10 nM TBG): No (or only limited) inhibition
T4EQ concentration (TTR binding) [3]: 9.73 nM
IC50 [3, 14]: 271 nM
IC50 [3, 15]: 191 nM
IC50 [3, 16]: 189 nM
IC50 [3, 17]: 196 nM
IC50 [3, 18]: 194 nM
IC50 [3, 19]: 179 nM
Ki [3, 20]: 143 nM
Ki [3, 21]: 133 nM
Ki [3, 22]: 127 nM
Ki ([3]; TTR Ki [95% CI], 55 nM FITC-T4, 30 nM TTR, RT (120 min)): 133 nM
Ki [3, 23]: 171 nM
Ki [3, 24]: 243 nM
Contribution to T4EQ concentration (TTR binding) [3]: 50.9%
IC20 [3]: 118 nM

SMILES: O=C(O)C(F)(F)C(F)(F)C(F)(F)C(F)(F)C(F)(F)C(F)(F)C(F)(F)C(F)(F)C(F)(F)C(F)(F)C(F)(F)C(F)(F)F [PFTA, perfluorotridecanoic acid]
Ki ([4]; read-out: TBG Ki): 23000 nM

inhibition of the FITC-T4 binding to TBG (in words) ([2]; 5 nM FITC-T4, 10 nM TBG): no inhibition
SMILES: OC[C@@H](O)[C@@H](O)[C@H](O)[C@H](O)CO [D-mannitol]
displacement of FITC-T4 from TTR (in words) ([3]; 110 nM FITC-T4, 30 nM TTR, RT): Except for D-mannitol, all compounds displaced FITC-T4 from TTR

SMILES: O=C(O)C(F)(F)C(F)(F)C(F)(F)C(F)(F)C(F)(F)C(F)(F)C(F)(F)F [PFOA, perfluorooctanoic acid]
Ki [1]: 1100 nM
Ki [5]: 60 nM
inhibition of the FITC-T4 binding to TBG (in words) ([2]; 5 nM FITC-T4, 10 nM TBG): No (or only limited) inhibition
T4EQ concentration (TTR binding) [3]: 1.26 nM
IC50 [3, 14]: 763 nM
IC50 [3, 15]: 500 nM
IC50 [3, 16]: 496 nM
IC50 [3, 17]: 459 nM
IC50 [3, 18]: 460 nM
IC50 [3, 19]: 461 nM
Ki [3, 20]: 268 nM
Ki [3, 21]: 280 nM
Ki [3, 22]: 304 nM
Ki [3, 23]: 353 nM
Ki [3, 24]: 568 nM
Contribution to T4EQ concentration (TTR binding) [3]: 6.6%
IC20 [3]: 267 nM

Ki [2, 25]: 3760 nM
IC50 [2, 26]: 68100 nM
IC20 [2, 27]: 7300 nM
IC20 [2, 28]: 6420 nM
Ki [2, 29]: 3310 nM
T4EQ concentration (TBG binding) ([2]; T4EQi = highest human blood concentration x T4-REPi): 2 pM
Contribution to T4EQ concentration (TBG binding) ([2]; mixture of highest human blood concentrations of TBBPA, triclosan and BPA): 0.1%
IC20 [3, 30]: 12 nM
IC50 ([3]; 110 nM FITC-T4, 30 nM TTR, RT, 15 min, average [95% CI], read-out: TTR IC50): 22 nM
Ki ([3]; 110 nM FITC-T4, 30 nM TTR, RT, 15 min, derived from IC20, average [95% CI], read-out: TTR Ki): 12 nM
T4EQ concentration (TTR binding) [3]: 3.73 nM
Contribution to T4EQ concentration (TTR binding) [3]: 19.5%
SMILES: CC(C)(c1cc(Br)c(O)c(Br)c1)c1cc(Br)c(O)c(Br)c1 [TBBPA]
Ki [1]: 17 nM
binding to TBG (in words) [6]: not to TBG
binding to TTR (in words) [7]: binding of TBBPA to TTR

SMILES: O=C(O)C(F)(F)C(F)(F)C(F)(F)C(F)(F)C(F)(F)C(F)(F)C(F)(F)C(F)(F)C(F)(F)C(F)(F)C(F)(F)C(F)(F)C(F)(F)F [PFTdA, perfluorotetradecanoic acid]
Ki ([4]; read-out: TBG Ki): 26600 nM

SMILES: Oc1cc(Cl)ccc1Oc1ccc(Cl)cc1Cl [Triclosan, triclosan]
IC20 [2, 27]: 284 nM
IC20 [2, 28]: 293 nM

Ki [10]: 2.6 nM
Ki [2, 25]: 2.5 nM
IC50 [2, 26]: 14.9 nM
IC20 [2, 27]: 9.2 nM
IC20 [2, 28]: 5.9 nM
Ki [2, 29]: 0.8 nM
Ki ([2]; 15 min, preliminary temperature experiment (N = 2), read-out: TBG Ki): 2.9 nM
IC20 [3, 30]: 25 nM
SMILES: N[C@@H](Cc1cc(I)c(Oc2cc(I)c(O)c(I)c2)c(I)c1)C(=O)O [T4, 3,3′,5,5′-tetraiodothyronine]
Kd ([8]; read-out: Determined Kd value of ligand with TTR): 9.2 ± 1.2 nM
Ki ([8]; read-out: TTR literature Ki): 13.7 ± 1.3 nM
Ki [9]: 2.2 nM
IC50 [11]: 17.2 nM
Ki ([4]; N.D means not detected, read-out: TBG literature Ki): 7 nM
Ki [12]: 0.6 nM
Ki [13]: 17 nM
